Measured values as given in PubChem BioAssay AID1033 (Sanford-Burnham Center for Chemical Genomics, 2008).
Activity calls are given as the source filed them. The rule behind the calls is not given here.

Biological target: Chaperone protein DnaK (Escherichia coli (strain K12)) (UniProt P0A6Y8)
Assay: binders of DnaK substrate-binding domain, biophysical, NMR, chaperone (AID 1033)
Details: Purified DnaK SBD, NMR ligand binding

Chaperone protein DnaK (Escherichia coli (strain K12)), sequence (P0A6Y8 whole entry, looked up, the tested form may be a part): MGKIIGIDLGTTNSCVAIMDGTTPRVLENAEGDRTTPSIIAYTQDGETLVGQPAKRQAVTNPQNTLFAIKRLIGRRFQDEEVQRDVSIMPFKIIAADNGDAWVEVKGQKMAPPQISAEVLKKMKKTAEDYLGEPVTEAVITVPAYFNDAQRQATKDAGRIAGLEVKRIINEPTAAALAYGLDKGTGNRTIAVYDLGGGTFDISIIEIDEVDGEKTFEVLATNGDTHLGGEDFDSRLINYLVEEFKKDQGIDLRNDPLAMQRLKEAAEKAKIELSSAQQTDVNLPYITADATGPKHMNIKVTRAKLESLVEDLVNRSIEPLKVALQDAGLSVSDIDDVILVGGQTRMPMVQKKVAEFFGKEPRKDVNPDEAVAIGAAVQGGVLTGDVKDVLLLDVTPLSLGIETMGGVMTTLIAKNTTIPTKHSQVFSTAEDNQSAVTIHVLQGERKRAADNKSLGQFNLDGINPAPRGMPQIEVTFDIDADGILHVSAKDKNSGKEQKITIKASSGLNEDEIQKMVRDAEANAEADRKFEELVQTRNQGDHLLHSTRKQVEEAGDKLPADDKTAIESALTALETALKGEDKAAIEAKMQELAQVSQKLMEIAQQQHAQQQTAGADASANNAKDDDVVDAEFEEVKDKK

How did the Kd turn out when `O=C(N1CCOCC1)N1CCN(c2ccccn2)CC1` was run?
Its Kd is > 4 mM (inactive).

With `O=C1CSC(=O)N1CNc1ccccc1` as the compound, how does the Kd read?
The Kd was > 4 mM (inactive).

`COc1ccc(C2NC(C(=O)O)CS2)cc1` (centres undefined) was tested. Which Kd did it give?
The Kd was > 4 mM (inactive).

How did the Kd turn out when `NC(=O)C1CCN(c2nccc(C(F)(F)F)n2)CC1` was run?
Its Kd is > 4 mM (inactive).

Which Kd does the source give for `O=CN1CCN(C(=O)c2ccco2)CC1` here?
The Kd was > 4 mM (inactive).

With `OCc1sccc1-n1cccc1` as the compound, how does the Kd read?
The Kd was > 4 mM (inactive).

With `O=C(Nc1nncs1)c1c(F)cccc1F` as the compound, how does the Kd read?
The Kd was > 4 mM (inactive).

`O=C(Nc1ccc2c(c1)OCCO2)c1ccncc1` was tested. Which Kd did it give?
The Kd was > 4 mM (inactive).

How did the Kd turn out when `O=c1c(O)c(-c2ccc(O)c(O)c2)oc2cc(O)ccc12` was run?
Its Kd is > 4 mM (inactive).

Which Kd does the source give for `CSc1nc(NC(C)C)nc(N2CCOCC2)n1` here?
The Kd was > 4 mM (inactive).

`Cc1cc(C)nc(/N=C(/N)Nc2cccc(F)c2)n1` was tested. Which Kd did it give?
The Kd was > 4 mM (inactive).

How did the Kd turn out when `COc1cc(OC)c2c(c1)O[C@H](c1ccc(OC)c(OC)c1)[C@@H](O)C2` was run?
Its Kd is > 4 mM (inactive).

For `Cc1ccc(-c2c(C)n([O-])c(C)c(C)[n+]2=O)cc1`, which Kd is on record?
The Kd was > 4 mM (inactive).

How did the Kd turn out when `COc1ccccc1-c1n[nH]c(=O)o1` was run?
The Kd was > 4 mM (inactive).

Which Kd does the source give for `O=C1COc2ccc(C(=O)c3ccccc3)cc2CN1` here?
Its Kd is > 4 mM (inactive).

Which Kd does the source give for `OC1CSc2ncnn2C1` (centres undefined) here?
The Kd was > 4 mM (inactive).

How did the Kd turn out when `Fc1ccc(N2CCNCC2)cc1` was run?
The Kd was > 4 mM (inactive).

`O=C1CCC(=O)N1c1ccc(F)cc1` was tested. Which Kd did it give?
Its Kd is > 4 mM (inactive).

Which Kd does the source give for `CCn1nnc(NC(=O)c2ccccc2Br)n1` here?
The Kd was > 4 mM (inactive).

With `CC(=O)Nc1cccc(NC(=O)c2cccnc2)c1` as the compound, how does the Kd read?
Its Kd is > 4 mM (inactive).

`NC1Cc2ccccc2C1` was tested. Which Kd did it give?
The Kd was > 4 mM (inactive).

Which Kd does the source give for `c1ccc(C[N+]23CCN(CC2)c2ccccc23)cc1` here?
Its Kd is > 4 mM (inactive).

`c1nnc2c3c4c(sc3ncn12)CCCC4` was tested. Which Kd did it give?
Its Kd is > 4 mM (inactive).

How did the Kd turn out when `NS(=O)(=O)c1ccc(N=Cc2cccs2)cc1` was run?
Its Kd is > 4 mM (inactive).

With `Cc1n[nH]c(C)c1N` as the compound, how does the Kd read?
The Kd was > 4 mM (inactive).

Which Kd does the source give for `CN1CCc2c(sc(N)c2C#N)C1` here?
The Kd was > 4 mM (inactive).

For `Cc1nn(-c2ccccc2)nc1CO`, which Kd is on record?
Its Kd is > 4 mM (inactive).

How did the Kd turn out when `NC(=O)Cn1nc(-c2ccc(F)cc2)ccc1=O` was run?
Its Kd is > 4 mM (inactive).

With `CC(=O)Oc1ccc(-c2cc(=O)c3c(OC(C)=O)cc(OC(C)=O)cc3o2)cc1` as the compound, how does the Kd read?
The Kd was > 4 mM (inactive).

For `NC1=NC(=O)C(Cc2cccc([N+](=O)[O-])c2)S1` (centres undefined), which Kd is on record?
Its Kd is > 4 mM (inactive).

How did the Kd turn out when `NC(=O)C1CCN(C(=O)Nc2ccccc2)CC1` was run?
Its Kd is > 4 mM (inactive).

How did the Kd turn out when `O=C(Nc1cccc(Cl)c1)c1ccncc1` was run?
Its Kd is > 4 mM (inactive).

How did the Kd turn out when `Nc1cccc(-n2cccc2)c1` was run?
The Kd was > 4 mM (inactive).

`Cc1noc(C)c1C(=O)N1CCC(Cc2ccccc2)CC1` was tested. Which Kd did it give?
Its Kd is > 4 mM (inactive).

With `O=C(Nc1cnccn1)c1cccc(C(F)(F)F)c1` as the compound, how does the Kd read?
The Kd was > 4 mM (inactive).

How did the Kd turn out when `CC(=O)OCC(=O)[C@@]1(O)CCC2C3CC[C@@H]4C[C@H](OC(C)=O)CC[C@]4(C)C3C(=O)C[C@@]21C` (some centres undefined) was run?
Its Kd is > 4 mM (inactive).

Which Kd does the source give for `O=C(NN1C(=O)C2C3C=CC(C3)C2C1=O)C1CC=CCC1` (centres undefined) here?
The Kd was > 4 mM (inactive).

How did the Kd turn out when `CN(C)c1ccc(NC(=O)CC(C(=O)O)N(C)C)cc1` (centres undefined) was run?
Its Kd is > 4 mM (inactive).

Which Kd does the source give for `S=c1nc(C2CC2)[nH]c2ccccc12` here?
The Kd was > 4 mM (inactive).

How did the Kd turn out when `O=C1CCC(=O)N1c1cccnc1` was run?
The Kd was > 4 mM (inactive).

For `COCCn1cnc2cc(C)c(C)cc21`, which Kd is on record?
The Kd was > 4 mM (inactive).

With `Cc1cc(C(=O)O)n[nH]1` as the compound, how does the Kd read?
Its Kd is > 4 mM (inactive).

With `CCc1ccccc1NC(=O)c1cnccn1` as the compound, how does the Kd read?
The Kd was > 4 mM (inactive).

How did the Kd turn out when `C/C(O)=c1/sc2cc(C)nc(=N)n2c1=O` was run?
Its Kd is > 4 mM (inactive).

With `NC(N)=NCCCCN=C(N)N` as the compound, how does the Kd read?
Its Kd is > 4 mM (inactive).

With `CC(=O)Nc1nc(C)nc(-c2ccccc2)c1C(C)=O` as the compound, how does the Kd read?
The Kd was > 4 mM (inactive).

Which Kd does the source give for `O=C(O)c1ccc(Nc2nncc(=O)[nH]2)cc1` here?
Its Kd is > 4 mM (inactive).

Which Kd does the source give for `O=c1[nH]c(O)c(C=NC2CC2)c(=O)[nH]1` here?
Its Kd is > 4 mM (inactive).

`CCOC(=O)C(C)c1n[nH]c(=O)c2ccccc12` (centres undefined) was tested. Which Kd did it give?
Its Kd is > 4 mM (inactive).

For `Cc1ccc(NC(=O)CC2NCCNC2=O)c(C)c1` (centres undefined), which Kd is on record?
The Kd was > 4 mM (inactive).

Which Kd does the source give for `CC1CCCN(C/C(O)=C(\C#N)c2nc3ccccc3[nH]2)C1` (centres undefined) here?
The Kd was > 4 mM (inactive).

`CC(=O)O[C@@H]1c2c(ccc3ccc(=O)oc23)OC(C)(C)[C@@H]1OC(=O)CC(C)C` was tested. Which Kd did it give?
The Kd was > 4 mM (inactive).

`CC(=O)O[C@@H]1CC[C@@]2(C)C(CC[C@]3(C)C2CC=C2C4CC(C)(C)CC[C@]4(C(=O)O)CC[C@]23C)C1(C)C` (some centres undefined) was tested. Which Kd did it give?
Its Kd is > 4 mM (inactive).

For `CCN1CCN(CCCNc2ncnc3nc[nH]c23)CC1`, which Kd is on record?
Its Kd is > 4 mM (inactive).

`OCc1nc2ccccc2s1` was tested. Which Kd did it give?
The Kd was > 4 mM (inactive).

How did the Kd turn out when `O=C(NC1CC1)c1ccccc1[N+](=O)[O-]` was run?
The Kd was > 4 mM (inactive).

With `Cc1cc(C)n(-c2ccc(Cl)nn2)n1` as the compound, how does the Kd read?
Its Kd is > 4 mM (inactive).

With `NC1=NC(=O)/C(=C\c2cccc(C(=O)O)c2)S1` as the compound, how does the Kd read?
The Kd was > 4 mM (inactive).

`C[C@@H]1CC[C@@]2(NC1)O[C@H]1C[C@H]3C4CC=C5C[C@@H](O)CC[C@]5(C)C4CC[C@]3(C)C1[C@@H]2C` (some centres undefined) was tested. Which Kd did it give?
Its Kd is > 4 mM (inactive).
